Results taken from paper PMC11976443 (2025).

Tested on: 5' FAM-CoA-seq10 aptamer (DNA, aptamer) ATGCAGTCGGCGTCGGACAGGCAAAGGGGAGAGTGATTATAATCACTCGGGACATGGGATCTGTCCGACGATGTAACGCTTCAC
Experiment: fluorescence strand displacement
Details: apparent; 50 nM aptamer, 1:5 3'-BHQ1 capture strand CTGTCCGACGCCGAC displaced

Kd: 1133 µM
SMILES: CC(C)(COP(=O)(O)OP(=O)(O)OC[C@H]1O[C@@H](n2cnc3c(N)ncnc32)[C@H](O)[C@@H]1OP(=O)(O)O)[C@@H](O)C(=O)NCCC(=O)NCCS
